Experiments:
[1] = test system: recombinant guanylate cyclase reporter cell line; test: Effect on a recombinant guanylate cyclase reporter cell line; format: cell-based; details: MEC=minimum effective concentration
Method: B-2. Effect on a Recombinant Guanylate Cyclase Reporter Cell Line
The cellular activity of the compounds according to the invention is determined using a recombinant guanylate cyclase reporter cell line, as described in F. Wunder et al., Anal. Biochem. 339, 104-112 (2005).

rabbit aorta rings = test: Vasorelaxant action in vitro (phenylephrine-contracted rabbit aorta rings); details: Oryctolagus cuniculus; concentration reducing phenylephrine-induced contraction of rabbit aorta rings by 50%
Method: B-1. Vasorelaxant Action In Vitro
Rabbits are stunned by a blow to the neck and exsanguinated. The aorta is removed, freed from adhering tissue and divided into rings of a width of 1.5 mm. The rings are placed individually under an initial tension in 5 ml organ baths with Krebs-Henseleit solution which is at 37° C., is gassed with carbogen and has the following composition (in each case mM): sodium chloride 119; potassium chloride: 4.8; calcium chloride dihydrate: 1; magnesium sulfate heptahydrate: 1.4; potassium dihydrogenphosphate: 1.2; sodium bicarbonate: 25; glucose: 10. The contractile force is determined with Statham UC2 cells, amplified and digitalized using A/D transducers (DAS 1802 HC, Keithley Instruments Munich), and recorded in parallel on linear recorders. To obtain a contraction, phenylephrine is added to the bath cumulatively in increasing concentration. After several control cycles, the substance to be investigated is added in each further run in increasing dosage in each case, and the height of the contraction achieved is compared with the height of the contraction reached in the last preceding run. This is used to calculate the concentration needed to reduce the magnitude of the control value by 50% (IC50 value). The standard administration volume is 5 μl; the DMSO content in the bath solution corresponds to 0.1%.

[2] = Pharmacokinetic parameters following intravenous administration in rats; format: in vivo, male Wistar rats; details: intravenous administration of 0.3 mg/kg
Method: B-4. Determination of Pharmacokinetic Parameters Following Intravenous and Oral Administration:
The pharmacokinetic parameters of the substance are determined in male CD-1 mice, male Wistar rats and female beagles. The administration volume is 1 ml/kg for mice, 5 ml/kg for rats and 0.5 ml/kg for dogs. Intravenous administration is via a formulation of species-specific plasma/DMSO (99/1) in the case of mice and rats and via water/PEG400/ethanol (50/40/10) in the case of dogs. The taking of blood from rats is simplified by inserting a silicone catheter into the right Vena jugularis externa prior to substance administration. The surgical intervention takes place one day prior to the experiment with isofluran anesthesia and administration of an analgetic (carprofen 5 mg/kg s.c.). Substance administration is as i.v. bolus in the case of mice and via a 15-minute infusion in the case of rats and dogs. Removal of blood is after 0, 0.033, 0.083, 0.17, 0.5, 1, 2, 3, 4, 6, 7 and 24 hours in the case of mice and after 0, 0.083, 0.25, 0.28, 0.33, 0.42, 0.75, 1, 2, 3, 4, 6, 7 and 24 hours in the case of dogs and rats. […]
An internal standard (ZK 228859) is added to the unknown samples, calibration samples and QCs, and the protein is precipitated using excess acetonitrile. […] The substances are quantified by peak heights or areas using extracted ion chromatograms of specific MRM experiments.
The plasma concentration/time plots determined are used to calculate the pharmacokinetic parameters such as AUC, Cmax, t1/2 (half life) and CL (clearance) employing the validated pharmacokinetic calculation program KinEx (Vers. 2.5 and 3).
Since the substance quantification is performed in plasma, it is necessary to determine the blood/plasma distribution of the substance in order to be able to adjust the pharmacokinetic parameters correspondingly. […] After centrifugation at 1000 g, the plasma concentration is measured (see above) and determined by calculating the quotient of the cb/cp values.
Following intravenous administration of 0.3 mg/kg of example 1 in rats, the following values were recorded: […]

SMILES	MEC [1] [µM]	IC50 (rabbit aorta rings) [nM]	AUCnorm [2] [kg·h/L]	clearance ([2]; male, Wistar, rat, blood, read-out: CL blood (converted)) [mL/min/kg]	half-life ([2]; male, Wistar, rat, plasma) [h]
COC(=O)Nc1c(N)nc(-n2nc(Cc3ccccc3F)c3ncc(F)cc32)nc1N [Example 1, Methyl {4,6-diamino-2-[6-fluoro-3-(2-fluorobenzyl)-1H-pyrazolo[4,3-b]pyridin-1-yl]pyrimidin-5-yl}carbamate]	0.3	1380	4.62	5.5	1.38
CCOC(=O)Nc1c(N)nc(-n2nc(Cc3ccccc3F)c3ncc(F)cc32)nc1N [Example 2, Ethyl {4,6-diamino-2-[6-fluoro-3-(2-fluorobenzyl)-1H-pyrazolo[4,3-b]pyridin-1-yl]pyrimidin-5-yl}carbamate]	0.3	763			
COC(=O)N(C)c1c(N)nc(-n2nc(Cc3ccccc3F)c3ncc(F)cc32)nc1N [Example 7, Methyl {4,6-diamino-2-[6-fluoro-3-(2-fluorobenzyl)-1H-pyrazolo[4,3-b]pyridin-1-yl]pyrimidin-5-yl}methylcarbamate]	0.1	194			
CCOC(=O)N(C)c1c(N)nc(-n2nc(Cc3ccccc3F)c3ncc(F)cc32)nc1N [Example 8, Ethyl {4,6-diamino-2-[6-fluoro-3-(2-fluorobenzyl)-1H-pyrazolo[4,3-b]pyridin-1-yl]pyrimidin-5-yl}methylcarbamate]	0.1	286			
COC(=O)N(CC(F)(F)F)c1c(N)nc(-n2nc(Cc3ccccc3F)c3ncc(F)cc32)nc1N [Example 13, Methyl {4,6-diamino-2-[6-fluoro-3-(2-fluorobenzyl)-1H-pyrazolo[4,3-b]pyridin-1-yl]pyrimidin-5-yl}(2,2,2-trifluoroethyl)carbamate]	0.1	178			

Reference: patent publication US9309239B2, “Substituted 6-fluoro-1H-pyrazolo[4,3-b]pyridines and use thereof” (BAYER INTELLECTUAL PROPERTY GMBH, priority 2010, dated 2016)
